Test results taken from US11440908B2, “Crystalline forms of dasatinib” (Johnson Matthey Public Limited Company, priority 2018, dated 2022).

Legend:
Format in all cases: physicochemical
[1] = Retention of solid form after drying under vacuum; conditions: dried under vacuum at about 45° C. overnight (about 18-20 h)
Protocol: (§1) About 120 mg of dasatinib is dispensed in about 1 mL of ethyl formate and stirred at temperatures of about 15° C. or about 45° C. for about 24 h. The slurries that are obtained at either of two temperatures are filtered, to yield Form I of ethyl formate solvate of dasatinib.

[2] = Retention of solid form under high humidity conditions; conditions: about ≥95% relative humidity (RH) overnight (about 18-20 h), dried material
Protocol: as §1

[3] = Moisture uptake on exposure to 0-95% RH; conditions: exposed to 0-95% RH
[4] = Storage stability at controlled temperature/relative humidity

## Cc1nc(Nc2ncc(C(=O)Nc3c(C)cccc3Cl)s2)cc(N2CCN(CCO)CC2)n1 [dasatinib]
[1]
  solid form after drying under vacuum: retains its form
[2]
  solid form after exposure to high humidity: retains its form
[3]
  moisture uptake: < 1%
[4]; 25° C./97% RH
  stability on storage: stable up to 5 months
[4]; 40° C./75% RH
  stability on storage: stable up to 5 months
